The text below walks through data of patent US12201626B2, “Bifunctional compositions for the treatment of cancer” (ARMACEUTICA, INC., priority 2018, dated 2025).

Usually CC50 stands for the concentration at which the toxic effect on the cells reaches its halfway point.

Read-outs that look alike come from different tables or passages of the source. Where a SMILES comes first, the peptide text is derived from it. The star is where a group is joined. Cbz = O=C(OCc1ccccc1)*

One data set deals with HL-60 cells. Kind of data set: Phosphatidylserine externalization, annexin V-FITC/PI flow cytometry. Particulars: positive control, 24 h. Type of data set: cell-based, human. On the procedure:
(§1) To determine whether cell death induced by PND was occurring through apoptosis or necrosis, MDA-MB-231 and HL-60 cells were stained with annexin V-FITC and PI and monitored via flow cytometry. Cells were seeded in 24-well plates at a density of 100,000 for adherent MDA-MB-231 and 200,000 HL-60 cells in 1 ml of culture media. After overnight incubation, cells were treated with PND, and incubated for an additional 24 h. For MDA-MB-231 cells, unattached cells were harvested in an ice-cold tube, while adhered cells were detached by using HyQtase (Thermo Fisher) and incubated for around 5 min at 37° C. Both unattached and detached cells harvested from each individual well were washed with ice-cold PBS and centrifuged at 260×g for 5 min. HL-60 were centrifuged directly after the incubation period as they grow in suspension. Cells were then stained with a mixture of annexin V-FITC and PI in 100 μl of binding buffer and incubated on ice in the dark for 15 minutes, following the manufacturer's instructions (Beckman Coulter). Lastly, the cells were resuspended by the addition of 400 μl of ice-cold binding buffer and analysed by flow cytometry (Cytomics FC500; Beckman Coulter). For this series of experiments, cells treated with PBS, as solvent control; treated with H2O2, as a positive control of cytotoxicity; and untreated were included and processed in parallel. For each sample, 10,000 events/cells were collected and analysed using CXP software (Beckman Coulter). Both the experimental samples and their controls were processed similarly and assessed in triplicate. The sum of both early and late stages of apoptosis was calculated to obtain the total percentage of apoptotic cells.
A general note: Flow cytometry measures light scatter and fluorescence of single cells or particles in a stream.

The test system of a further data set is MDA-MB-231 cells. The description is as above. Type of data set: cell-based, human. Particulars: positive control, 24 h. The procedure:
as §1

Data set [1] deals with MDA-MB-231 breast cancer line. Kind of data set: cells. Type of data set: cell-based, human. On the procedure:
PND was added to cultures of the MDA-MB-231 breast cancer line 24 hours after the cells were treated with a selection of known commercial chemotherapeutic drugs, before the cells were analyzed for cell death. Each of the drugs are known to have serious side-effects at the does commonly administered for the treatment of cancer. The dose of the chemotherapeutic drugs was reduced to one half, one fourth, one eighth, and one sixteenth of the initial dose; while the dose of PND was kept the same. The effect of these combinational therapies was measured by the concentration of each compound needed to be cytotoxic to at least 50 percent of cancer cells (CC50).

The test system of data set [2] is plasmid dsDNA (pCMV-dR8.91). Kind of data set: DNA mobility-shift assay (agarose gel). In kind it is binding. Also noted: DNA mobility shift: unit of the concentration uncertain. The procedure:
Typically, an experimental compound intercalating or binding to double stranded (ds) DNA will increase the molecular mass resulting from forming complexes, decreasing its electrophoretic mobility in an agarose gel, as compared with untreated dsDNA. To explore the potential interaction between PND and dsDNA, a DNA mobility-shift assay was conducted. Each reaction mixture was of 10 μl total volume in PBS pH 7.4. Both PND (Sigma-Aldrich) and quinacrine (Sigma-Aldrich) were tested with three individual concentrations of 1 μM, 0.5 μM or 0.25 μM, respectively. To each reaction mixture, 100 ng of plasmid dsDNA (pCMV-dR8.91; Addgene, Cambridge, MA) was added and the mixture was then incubated for 30 min at 37° C. and stopped by adding 2 μl of 6× gel loading buffer and placed on ice. The potential binding interaction between both PND and quinacrine with dsDNA were analyzed by using 1% (w/v) agarose-gel electrophoresis dissolved in TAE buffer (0.04 M Tris base, 0.04 M acetate and 0.001 M EDTA) pH 8.0. To stain the dsDNA complexes, Ethidium bromide was added to the agarose gel throughout the electrophoresis process at a concentration of 0.5 μg/ml. DNA migration was visualized by utilizing a gel documentation system and pictures were captured by using a UV-light transilluminator (Alpha Innotech, San Leandro, CA). The well-known DNA intercalator fluorescent compound, propidium iodide (PI), was included as positive controls at 1 μg per reaction. As a control, untreated plasmid DNA was included to determine its normal electrophoretic mobility in the gel.

Setting [3] is: Homo sapiens, MDA-MB-231, read-out: initial dose (CC50).

Take `OO` [H2O2, hydrogen peroxide]: the entries for the “mode of cytotoxic effect (apoptosis or necrosis)” value in the data set on HL-60 cells and in the data set on MDA-MB-231 cells were “necrosis” and “apoptosis”, respectively.
`CC(C)C[C@@H](C=O)NC(=O)[C@H](CC(C)C)NC(=O)[C@H](CC(C)C)NC(=O)OCc1ccccc1` [MG132] (Cbz-Leu-Leu-Leu-aldehyde): the CC50 in data set [1] (setting [3]) stood at 500 nM.
Take `CC[N+](C)(CC)CCC[n+]1c(-c2ccccc2)c2cc(N)ccc2c2ccc(N)cc21.[I-].[I-]` [PI, propidium iodide]: the DNA mobility shift entry in data set [2] (positive control, 1 μg per reaction) was “provoked retardation of the DNA mobility”.
For the molecule `CC(C)C[C@H](NC(=O)[C@H](Cc1ccccc1)NC(=O)c1cnccn1)B(O)O` [bortezomib], in data set [1] (setting [3]), the CC50 amounted to 10 nM.
With `N.N.[Cl][Pt][Cl]` [cisplatin], in data set [1], the CC50 was found to be 95400 nM.
For `Nc1ccn([C@@H]2O[C@H](CO)[C@@H](O)C2(F)F)c(=O)n1` [gemcitabin], the CC50 in data set [1] (setting [3]) turned out to be 440 nM.
With `CCN(CC)CCCC(C)Nc1c2ccc(Cl)cc2nc2ccc(OC)cc12` (stereo not shown) [quinacrine], the DNA mobility shift result in data set [2] (0.5 and 0.25 mM, 100 ng plasmid DNA) is recorded as “clear retardation mobility of the DNA”; in data set [2] (1 (unit uncertain), 100 ng plasmid DNA, 30 min 37° C.), “maximum retardation of DNA mobility”. In addition, the DNA degradation result in data set [2] (fragments smaller than free supercoiled DNA) is “did not exhibit any DNA degradation activity”.
